Results on two compounds are retold here after patent US8163536B2, “Device for preparing an undifferentiated cell from a more committed cell” (Tristem Trading (Cyprus) Limited, priority 2000, dated 2012).

For assay [1], the system named is enriched, purified, normal B lymphocytes. The assay is described as follows: Flow cytometry of enriched, purified, normal B lymphocytes treated with one of three agents (FIG. 20). The class given is cell-based, human. The note with it: compared with the negative control. How it is done:
Initial studies actually identified three agents—granulocyte/monocyte-colony stimulating factor (GM-CSF), erythropoietin and mAb CR3/43. A preparation of enriched, purified, normal B lymphocytes was treated in a device according to the present invention with one of these three agents in a similar manner to that described for CR3/43 and TAL.1B5 above and treated samples examined by flow cytometry as described above. […] In particular, all three agents increased the relative number of CD34^+ cells in the cell population (see FIG. 20).
On the technique in general: In flow cytometry, cells or beads pass a laser one at a time.

The subject of a further assay is displaced cells. The note with it: pre-determined period, then calcium containing medium containing cortisone.

Excerpt for displaced cells: The erythroid progenitors can be cultured and expanded for long periods of time and may be used in the treatment red blood disorder and red blood shortages.

“GM-CSF: granulocyte/monocyte-colony stimulating factor, haematopoietic growth factor”: the “relative number of CD34+ cells in the cell population (FIG. 20)” value in assay [1] is given as “increased”.
As for `O=C(O)CN(CCN(CC(=O)O)CC(=O)O)CC(=O)O` [EDTA], in the assay on displaced cells, the “retrodifferentiation of more committed cells” value is reported as “caused more committed cells to retrodifferentiate into undifferentiated cells”.
